# Results reported in ChEMBL document CHEMBL1137363, “Discovering inhibitors of human sirtuin type 2: novel structural scaffolds” (J Med Chem, 2006).
# Biological target: T1, NAD-dependent protein deacetylase sirtuin-2 (Homo sapiens, UniProt Q8IXJ6)
# T1 sequence (Q8IXJ6 whole entry): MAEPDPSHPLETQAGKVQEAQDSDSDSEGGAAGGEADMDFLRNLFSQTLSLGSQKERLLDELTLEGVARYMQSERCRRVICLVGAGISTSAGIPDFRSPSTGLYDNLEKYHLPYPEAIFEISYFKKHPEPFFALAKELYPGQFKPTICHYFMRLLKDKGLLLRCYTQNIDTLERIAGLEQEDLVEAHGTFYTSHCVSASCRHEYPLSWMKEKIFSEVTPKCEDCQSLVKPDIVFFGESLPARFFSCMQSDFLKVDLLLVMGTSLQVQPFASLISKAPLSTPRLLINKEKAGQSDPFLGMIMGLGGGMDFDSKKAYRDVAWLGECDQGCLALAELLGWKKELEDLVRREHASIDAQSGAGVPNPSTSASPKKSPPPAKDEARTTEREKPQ
# Assay: Inhibition of human recombinant SIRT2
row,IC50 [µM],Compound
1,200,CCCCC(CC)COCCCNC(=O)CCC(C)(c1ccc(O)cc1)c1ccc(O)cc1 (stereo not drawn)
2,91,OCc1cccc(/C=N/c2cc(/N=C/c3cccc(CO)c3O)cc(C(F)(F)F)c2)c1O
3,136,CC1(C)CCC(C)(C)c2cc(-c3csc(C4CCN(Cc5ccc(N(CCC#N)CCC#N)cc5)CC4)n3)ccc21
